Experimental data reported in patent publication US20240139210A1, “TREATMENT OF NF-KB-MEDIATED DISEASE” (ReveraGen BioPharma, Inc., priority 2020, published 2024).

Experiment: VBP15-002 multiple ascending dose trial, PK and safety
Type: in vivo, human
Experimental: Vamorolone clinical studies have been conducted in adult male volunteers and boys with DMD, a disorder in which skeletal muscle is in a chronic inflammatory state. Two consecutive open-label dose-ranging studies in 48 DMD patients aged 4 to <7 years (corticosteroid-naïve) were conducted (Phase IIa, VBP15-002; Phase IIa, VBP15-003). Doses were tested over a 24-fold dose range (0.25, 0.75, 2.0, and 6.0 mg/kg/day), with 12 participants per group. The first multiple ascending dose (MAD) cohort trial-tested pharmacokinetics (PK) and safety for 2 weeks of drug dosing followed by a 2-week washout (VBP15-002). […] All DMD participants completed the MAD study and then continued on the same dose for a 24-week dose-finding (efficacy and safety) extension study (VBP15-003).
VBP15-002 (Phase IIa; two weeks on the drug, two weeks off drug) enrolled 48 corticosteroid-naïve participants with DMD, and all 48 participants completed the study and enrolled into VBP15-003 (Phase IIa extension; 24-week treatment). Forty-six of 48 participants completed the VBP15-003 study (2 participants withdrew from VBP15-003 for reasons unrelated to the study drug). In addition, all participants (46/46) opted to enroll in the 24-month long-term extension study, VBP15-LTE.

In the case of `C[C@@H]1C[C@H]2[C@@H]3CCC4=CC(=O)C=C[C@]4(C)C3=CC[C@]2(C)[C@@]1(O)C(=O)CO` [Vamorolone, 17α,21-dihydroxy-16α-methylpregna-1,4,9(11)-triene-3,20-dione], the dose-limiting toxicities (0.25-6.0 mg/kg/day, 2 weeks dosing) is reported as “no dose-limiting toxicities”, the drug accumulation (day 1 vs day 14) is reported as “no drug accumulation” and the half-life (male, human, in vivo, oral, DMD patients aged 4 to <7 years, 0.25-6.0 mg/kg/day, 2 weeks dosing) is reported as roughly 2 h.
